In PubChem BioAssay AID328 (DTP/NCI, 2004):
Values joined by “and” are separate entries in the source; they are usually repeats but may differ in a detail not shown here. Identical values can stand only once. Toxic doses and inconclusive results are not listed. Starred links: 1 amine or outer side, 2 acyl side, 3 side chain; linkers in the order of their positions; H or OH if unused. Positions of bridges follow the written chain, without caps; N, C: chain ends. Non-standard residues stand in square brackets, D forms with d. Residues, ends and D or L forms follow the SMILES beside them. Chains are numbered I, II in the order given. ξ: configuration not given here. Actinocin(9to1) = Cc1c2oc3c(C)ccc(C(=O)[*:1])c3nc-2c(C(=O)[*:2])c(N)c1=O; ξPro(4ξ-Me) = CC1CNC(C(=O)O)C1; NMeV = CN[CH](C(=O)O)C(C)C; Sar = CNCC(=O)O

Tested on: BDF1 mice, P388 leukemia ip, median survival T/C
Test: NCI In Vivo Anticancer Drug Screen. Data for tumor model P388 Leukemia (intraperitoneal) in B6D2F1 (BDF1) mice
Details: endpoint: median survival time, higher = longer survival
Outline: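 Steps: implant the tumour, treat one group with compound and another with vehicle, record survival, then divide treated by control.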

[1] = dose: 50.0 mg/kg/injection, schedule: Q01DX009 (ip), vehicle: saline
[2] = dose: 100.0 mg/kg/injection, schedule: Q01DX009 (ip), vehicle: saline
[3] = dose: 100.0 mg/kg/injection, schedule: Q04DX003 (ip), vehicle: saline
[4] = dose: 200.0 mg/kg/injection, schedule: Q04DX003 (ip), vehicle: saline
[5] = dose: 400.0 mg/kg/injection, schedule: Q04DX003 (ip), vehicle: saline
[6] = dose: 25.0 mg/kg/injection, schedule: Q04DX003 (ip), vehicle: saline
[7] = dose: 50.0 mg/kg/injection, schedule: Q01DX009 (ip), vehicle: saline with Tween-80
[8] = dose: 50.0 mg/kg/injection, schedule: Q04DX003 (ip), vehicle: saline
[9] = dose: 100.0 mg/kg/injection, schedule: Q01DX009 (ip), vehicle: saline with Tween-80
[10] = dose: 100.0 mg/kg/injection, schedule: Q04DX003 (ip), vehicle: saline with Tween-80
[11] = dose: 200.0 mg/kg/injection, schedule: Q04DX003 (ip), vehicle: saline with Tween-80
[12] = dose: 200.0 mg/kg/injection, schedule: Q01DX009 (ip), vehicle: saline with Tween-80
[13] = dose: 25.0 mg/kg/injection, schedule: Q01DX009 (ip), vehicle: saline with Tween-80
[14] = dose: 50.0 mg/kg/injection, schedule: Q04DX003 (ip), vehicle: saline with Tween-80
[15] = dose: 400.0 mg/kg/injection, schedule: Q01DX009 (ip), vehicle: saline

COC(=O)c1cc(=O)nc(N/N=C/c2ccc(C)cc2)s1
T/C (dose: 50.0 mg/kg/injection, schedule: Q01DX005 (ip), vehicle: saline with Tween-80): 94 % of control | T/C (dose: 100.0 mg/kg/injection, schedule: Q01DX005 (ip), vehicle: saline with Tween-80): 89 % of control | T/C (dose: 200.0 mg/kg/injection, schedule: Q01DX005 (ip), vehicle: saline with Tween-80): 99 % of control

CC(=O)OC1C=COC(C)C1OC(C)=O (stereo not given)
T/C [1]: 98 % of control | T/C [2]: 114 % of control | T/C [3]: 100 % of control | T/C [4]: 99 % of control | T/C [5]: 100 % of control

CCCCCCCCCCOP(N)(=O)OCCCCCCCCCC
T/C [6]: 115 % of control | T/C [7]: 90 % of control | T/C [8]: 110 % of control | T/C [9]: 86 % of control | T/C [10]: 95 % of control | T/C [3]: 110 % of control | T/C (dose: 150.0 mg/kg/injection, schedule: Q04DX003 (ip), vehicle: saline): 110 % of control | T/C [11]: 95 % of control | T/C (dose: 225.0 mg/kg/injection, schedule: Q04DX003 (ip), vehicle: saline): 105 % of control

C/C(=N\NC(=O)C(=O)N/N=C(\C)c1ccccc1)c1ccccc1
T/C [7]: 96 % of control | T/C [9]: 91 % of control

CCN(Cc1ccccc1)c1ccc(/C=C/c2ccnc3ccccc23)cc1
T/C [7]: 100 % of control | T/C [9]: 90 % of control | T/C [12]: 108 % of control

Cc1cc(-c2ccccc2)[n+](C)n1C
T/C (dose: 12.5 mg/kg/injection, schedule: Q01DX009 (ip), vehicle: saline with Tween-80): 98 % of control | T/C [13]: 118 % of control

CNC(=O)C(C)C1C(=O)/C(=C(O)/C=C\C(C)=C\C(C)C2OC3(C)OC(C=CC34CO4)C2C)C(=O)N1C1CCC(O)C(C)O1 (stereo not given)
T/C [9]: 109 % of control | T/C [12]: 100 % of control | T/C (dose: 400.0 mg/kg/injection, schedule: Q01DX009 (ip), vehicle: saline with Tween-80): 109 % of control

CC1(c2cccs2)NC(=O)N(Cl)C1=O (stereo not given)
T/C [13]: 97 % of control | T/C (dose: 25.0 mg/kg/injection, schedule: Q04DX003 (ip), vehicle: saline with Tween-80): 94 % of control | T/C [7]: 97 % of control | T/C [14]: 102 % of control | T/C [9]: 108 % of control | T/C [10]: 104 % of control and 107 % of control | T/C [12]: 108 % of control | T/C [11]: 109 % of control | T/C (dose: 400.0 mg/kg/injection, schedule: Q04DX003 (ip), vehicle: saline with Tween-80): 107 % of control

COc1ccc(/C=C/C(=N\O)c2ccc(OC)c(OC)c2)cc1OC
T/C (dose: 25.0 mg/kg/injection, schedule: Q01DX009 (ip), vehicle: saline): 118 % of control | T/C [6]: 105 % of control | T/C [1]: 97 % of control | T/C [8]: 96 % of control | T/C [2]: 120 % of control | T/C [3]: 105 % of control | T/C [4]: 114 % of control | T/C [15]: 103 % of control | T/C [5]: 105 % of control

Nc1ccc(N(CCCl)CCN(CCCl)c2ccc(N)cc2)cc1
T/C (dose: 0.8 mg/kg/injection, schedule: Q01DX009 (ip), vehicle: saline): 154 % of control | T/C (dose: 1.2 mg/kg/injection, schedule: Q01DX009 (ip), vehicle: saline): 181 % of control | T/C (dose: 1.8 mg/kg/injection, schedule: Q01DX009 (ip), vehicle: saline): 204 % of control

Cc1c2oc3c(C)ccc(C(=O)NC4C(=O)NC(C(C)C)C(=O)N5CC(C)CC5C(=O)N(C)CC(=O)N(C)C(C(C)C)C(=O)OC4C)c3nc-2c(C(=O)NC2C(=O)NC(C(C)C)C(=O)N3CC(C)CC3C(=O)N(C)CC(=O)N(C)C(C(C)C)C(=O)OC2C)c(N)c1=O (stereo not given) (I: TV[ξPro(4ξ-Me)][Sar][NMeV] / II: TV[ξPro(4ξ-Me)][Sar][NMeV]; ester I:1-I:C, II:1-II:C; linker I:N-II:N via Actinocin(9to1); configuration not given here)
T/C (dose: 1.3 mg/kg/injection, schedule: Q01DX009 (ip), vehicle: saline + alcohol): 204 % of control | T/C (dose: 2.16 mg/kg/injection, schedule: Q01DX009 (ip), vehicle: saline + alcohol): 228 % of control | T/C (dose: 3.24 mg/kg/injection, schedule: Q04DX003 (ip), vehicle: saline + alcohol): 190 % of control and 161 % of control and 193 % of control | T/C (dose: 3.6 mg/kg/injection, schedule: Q01DX009 (ip), vehicle: saline + alcohol): 314 % of control | T/C (dose: 5.4 mg/kg/injection, schedule: Q04DX003 (ip), vehicle: saline + alcohol): 160 % of control and 219 % of control | T/C (dose: 9.0 mg/kg/injection, schedule: Q04DX003 (ip), vehicle: saline + alcohol): 160 % of control and 209 % of control and 99 % of control | T/C (dose: 15.0 mg/kg/injection, schedule: Q04DX003 (ip), vehicle: saline + alcohol): 104 % of control and 207 % of control | T/C (dose: 288.0 micrograms/kg/injection, schedule: Q01DX009 (ip), vehicle: saline + alcohol): 169 % of control | T/C (dose: 480.0 micrograms/kg/injection, schedule: Q01DX009 (ip), vehicle: saline + alcohol): 176 % of control | T/C (dose: 800.0 micrograms/kg/injection, schedule: Q01DX009 (ip), vehicle: saline + alcohol): 194 % of control | T/C (dose: 864.0 micrograms/kg/injection, schedule: Q04DX003 (ip), vehicle: saline + alcohol): 101 % of control | T/C (dose: 2400.0 micrograms/kg/injection, schedule: Q04DX003 (ip), vehicle: saline + alcohol): 167 % of control | T/C (dose: 4000.0 micrograms/kg/injection, schedule: Q04DX003 (ip), vehicle: saline + alcohol): 151 % of control and 194 % of control

OCC1CC[N-]CC1.OCC1CC[N-]CC1.[Cl][Pt+2]([Cl])([Cl])[Cl]
T/C [6]: 104 % of control | T/C [8]: 101 % of control | T/C [3]: 118 % of control

CNC(=O)NCCOC(=O)NC
T/C (dose: 200.0 mg/kg/injection, schedule: Q01DX009 (ip), vehicle: saline): 100 % of control | T/C [15]: 100 % of control

COc1ccc(Nc2ccnc3cc(Cl)ccc23)cc1CN(CCCl)CCCl
T/C (dose: 0.11 mg/kg/injection, schedule: Q01DX009 (ip), vehicle: saline): 100 % of control | T/C (dose: 0.13 mg/kg/injection, schedule: Q01DX009 (ip), vehicle: saline): 89 % of control | T/C (dose: 0.2 mg/kg/injection, schedule: Q01DX009 (ip), vehicle: saline): 180 % of control | T/C (dose: 0.22 mg/kg/injection, schedule: Q01DX009 (ip), vehicle: saline): 117 % of control | T/C (dose: 0.22 mg/kg/injection, schedule: Q04DX003 (ip), vehicle: saline): 113 % of control | T/C (dose: 0.33 mg/kg/injection, schedule: Q04DX003 (ip), vehicle: saline): 104 % of control | T/C (dose: 0.44 mg/kg/injection, schedule: Q01DX009 (ip), vehicle: saline): 166 % of control | T/C (dose: 0.5 mg/kg/injection, schedule: Q04DX003 (ip), vehicle: saline): 122 % of control | T/C (dose: 0.66 mg/kg/injection, schedule: Q01DX009 (ip), vehicle: saline): 163 % of control | T/C (dose: 1.0 mg/kg/injection, schedule: Q01DX009 (ip), vehicle: saline): 163 % of control | T/C (dose: 1.25 mg/kg/injection, schedule: Q01DX009 (ip), vehicle: Klucel (hydroxypropylcellulose) (HPC)): 155 % of control | T/C (dose: 1.5 mg/kg/injection, schedule: Q01DX009 (ip), vehicle: saline): 176 % of control | T/C (dose: 2.5 mg/kg/injection, schedule: Q01DX009 (ip), vehicle: Klucel (hydroxypropylcellulose) (HPC)): 155 % of control | T/C (dose: 3.13 mg/kg/injection, schedule: Q04DX003 (ip), vehicle: saline): 154 % of control | T/C (dose: 4.0 mg/kg/injection, schedule: Q01DX009 (ip), vehicle: saline): 86 % of control | T/C (dose: 25.0 mg/kg/injection, schedule: Q04DX003 (ip), vehicle: saline sonified): 88 % of control

O=C(/C=C/c1ccc2c(c1)OCO2)c1ccc(Cl)cc1
T/C [14]: 100 % of control | T/C [10]: 100 % of control | T/C [11]: 100 % of control
